The target in the first experiment is T1, rabbit reticulocyte 15-LO (Oryctolagus cuniculus, UniProt P12530).
T1 construct: Fifteen-lipoxygenase was obtained from phenylhydrazine-treated rabbits and purified per the method of Rapoport; from tissue; host or cells: reticulocytes of phenylhydrazine-treated rabbits
T1 sequence (P12530 1-663): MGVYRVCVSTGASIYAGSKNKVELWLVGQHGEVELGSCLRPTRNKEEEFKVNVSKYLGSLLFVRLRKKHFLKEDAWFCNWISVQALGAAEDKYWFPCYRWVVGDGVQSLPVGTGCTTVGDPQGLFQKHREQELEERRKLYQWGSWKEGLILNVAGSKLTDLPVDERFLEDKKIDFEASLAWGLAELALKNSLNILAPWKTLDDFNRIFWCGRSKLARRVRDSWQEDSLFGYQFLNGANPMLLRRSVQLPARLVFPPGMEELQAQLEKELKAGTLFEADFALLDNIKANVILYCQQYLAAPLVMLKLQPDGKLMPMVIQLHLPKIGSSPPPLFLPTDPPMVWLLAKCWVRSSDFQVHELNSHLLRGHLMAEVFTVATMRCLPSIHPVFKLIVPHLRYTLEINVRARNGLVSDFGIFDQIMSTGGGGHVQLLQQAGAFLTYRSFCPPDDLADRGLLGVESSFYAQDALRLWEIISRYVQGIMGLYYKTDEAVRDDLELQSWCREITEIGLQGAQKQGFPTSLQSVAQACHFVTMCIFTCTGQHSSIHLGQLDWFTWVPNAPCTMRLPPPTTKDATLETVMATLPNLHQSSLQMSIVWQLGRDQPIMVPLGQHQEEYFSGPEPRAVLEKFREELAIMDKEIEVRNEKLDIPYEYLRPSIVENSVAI
Kind of experiment: Rabbit Reticulocyte 15-LO Assay (h15LO). It counts as biochemical. Particulars: Table 2; 2U rabbit reticulocyte 15-LO, 174 μM linoleic acid, 15 minutes at 4° C. As to the method: Rabbit Reticulocyte 15-LO Assay (h15LO)
The present 15-LO assay takes advantage of the ability of 15-LO to oxidize the fatty acid linoleic acid to the hydroperoxy fatty acid 13-(S)HPODE, resulting in the formation of a conjugated diene. The 15-LO inhibitors are incubated with 15-LO enzyme in the presence of linoleic acid substrate. The initial reaction is compared to an uninhibited (maximal) reaction to yield % inhibition. […] This prevents artificial nonenzyme lipid peroxidation and product breakdown in the sample. 13-HPODE is quantitated by comparing peak areas of individual samples with those from a standard curve generated using authentic 13-HODE. This assay is performed using 2U of rabbit reticulocyte 15-LO in the presence of 174 μM linoleic acid. The reaction is incubated for 15 minutes at 4° C. The total reaction volume is 100 μL in PBS containing 0.2% Na cholate.
Fifteen-lipoxygenase was obtained from phenylhydrazine-treated rabbits and purified per the method of Rapoport (Rapoport S. M., Schewe T., Wiesner R., et al. The lipoxygenase of reticulocytes. Purification, characterization, and biological dynamics of the lipoxygenase; its identity with the respiratory inhibitors of the reticulocyte. European Journal of Biochemistry, 1979;96:545-561). The following chemicals were purchased and used as received: linoleic acid (NUJCheck Prep), 13-HPODE (Biomol Research Labs), sodium cholate (Sigma), trimethyl phosphite (Fluka Chemicals).
The compound `COc1ccc(S(=O)(=O)Nc2cc(NC(=O)c3ccc(Cl)c(Cl)c3)ccc2OC)cc1` [Example 196, 3,4-Dichloro-N-[4-methoxy-3-(4-methoxy-benzenesulfonylamino)-phenyl]-benzamide] returned an IC50 of 33 nM.
On to `COc1ccc(NC(=O)c2ccc(Cl)c(Cl)c2)cc1NS(=O)(=O)c1ccc(C)cc1` [Example 197, 3,4-Dichloro-N-[4-methoxy-3-(toluene-4-sulfonylamino)-phenyl]-benzamide], for which the IC50 amounted to 36 nM.
In turn, `COc1ccc(C(=O)Nc2ccc(F)c(F)c2)cc1NCc1cccc(O)c1` [Example 210, 3-(3-Hydroxy-benzylamino)-4-methoxy-N-(3,4-difluoro-phenyl)-benzamide] showed an IC50 of 24 nM.
`CCN(CC)c1ccc(CNc2cc(C(=O)Nc3ccccc3)ccc2OC)cc1` [Example 211, 3-(4-Diethylamino-benzylamino)-4-methoxy-N-phenyl-benzamide] registered an IC50 of 69 nM.
Compound `COc1ccc(C(=O)Nc2ccc(F)c(F)c2)cc1NCc1cccc(F)c1` [Example 212, 3-(3-Fluoro-benzylamino)-4-methoxy-N-(3,4-difluoro-phenyl)-benzamide] had an IC50 of 69 nM.
As to `COc1ccc(C(=O)Nc2ccccc2)cc1NCc1cccc(O)c1` [Example 213, 3-(3-Hydroxy-benzylamino)-4-methoxy-N-phenyl-benzamide], half-maximal inhibition (IC50) required 79 nM.
On the same count and under the same terms, as for `COc1ccc(C(=O)Nc2ccccc2)cc1NCc1cccc(F)c1` [Example 214, 4-Methoxy-3-(3-fluoro-benzylamino)-N-phenyl-benzamide], the figure is 89 nM; as for `COc1ccc(C(=O)Nc2ccccc2)cc1NCc1cccc([N+](=O)[O-])c1` [Example 215, 4-Methoxy-3-(3-nitro-benzylamino)-N-phenyl-benzamide], 110 nM.
As to `COc1ccc(CNc2cc(C(=O)Nc3ccccc3)ccc2OC)cc1` [Example 216, 4-Methoxy-3-(4-methoxy-benzylamino)-N-phenyl-benzamide], the IC50 came to 118 nM.
The compound `COc1ccc(C(=O)Nc2ccccc2)cc1NCc1cccc2ccccc12` [Example 217, 4-Methoxy-3-[(naphthalen-1-ylmethyl)-amino]-N-phenyl-benzamide] had an IC50 of 129 nM.
As to `COc1ccc(C(=O)Nc2ccccc2)cc1NCc1cc(C)cc(C)c1` [Example 218, 4-Methoxy-3-(3,5-dimethyl-benzylamino)-N-phenyl-benzamide], it took 161 nM to reach half-maximal inhibition (IC50).
Consider `COc1ccc(C(=O)Nc2ccccc2)cc1NCc1cccc(F)c1F` [Example 219, 3-(2,3-Difluoro-benzylamino)-4-methoxy-N-phenyl-benzamide], for which the IC50 was 166 nM.
Still for that read-out and setting: as for `COc1ccc(C(=O)Nc2ccccc2)cc1NCc1ccc(OC(C)=O)cc1` [Example 220, Acetic acid 4-[(2-methoxy-5-phenylcarbamoyl-phenylamino)-methyl]-phenyl Ester], the figure is 509 nM; as for `COC(=O)c1ccc(CNc2cc(C(=O)Nc3ccccc3)ccc2OC)cc1` [Example 221, 4-[(2-Methoxy-5-phenylcarbamoyl-phenylamino)-methyl]-benzoic Acid Methyl Ester], 551 nM; as for `COc1ccc(C(=O)Nc2ccccc2)cc1NCc1ccccc1C` [Example 223, 4-Methoxy-3-(2-methyl-benzylamino)-N-phenyl-benzamide], 892 nM.
`COc1ccc(C(=O)Nc2ccccc2)cc1NCc1ccc(F)cc1` [Example 224, 4-Methoxy-3-(4-fluoro-benzylamino)-N-phenyl-benzamide]: the 50% inhibitory concentration (IC50) turned out to be 982 nM.

Staying with this experiment, now noted: Table 2; concentration not given.
As for `COc1ccc(C(=O)Nc2ccc(F)cc2)cc1NS(=O)(=O)c1cccc([N+](=O)[O-])c1` [Example 190, 4-Methoxy-3-(3-nitro-benzenesulfonylamino)-N-(4-fluoro-phenyl)-benzamide], the “h15LO, value given as bare %” value was 97.05%.
The same measure, in the same setting: as for `COc1ccc(C(=O)Nc2ccc(F)cc2)cc1NS(=O)(=O)c1ccc([N+](=O)[O-])cc1` [Example 191, 4-Methoxy-3-(4-nitro-benzenesulfonylamino)-N-(4-fluoro-phenyl)-benzamide], the figure is 96.99%; as for `COc1ccc(C(=O)Nc2ccccc2)cc1NS(=O)(=O)c1ccc(C#N)cc1` [Example 192, 3-(4-Cyano-benzenesulfonylamino)-4-methoxy-N -phenyl-benzamide], 95.56%; as for `COc1ccc(C(=O)Nc2ccc(F)cc2)cc1NS(=O)(=O)c1ccc(C#N)cc1` [Example 193, 3-(4-Cyano-benzenesulfonylamino)-4-methoxy-N-(4-fluoro-phenyl)-benzamide], 94.51%.
On to `COc1ccc(C(=O)Nc2ccccc2)cc1NS(=O)(=O)c1cccc(C#N)c1` [Example 195, 3-(3-Cyano-benzenesulfonylamino)-4-methoxy-N-phenyl-benzamide], for which the “h15LO, value given as bare %” value amounted to 93.07%.
For `COc1ccc(NC(=O)c2ccc(F)c(F)c2)cc1NS(=O)(=O)c1cccc(N)c1` [Example 198, 3,4-Difluoro-N-[4-methoxy-3-(3-amino-benzenesulfonylamino)-phenyl]-benzamide], the “h15LO, value given as bare %” value was 97.77%.
For `COc1ccc(NC(=O)c2ccc(F)c(F)c2)cc1NS(=O)(=O)c1ccc(N)cc1` [Example 199, 3,4-Difluoro-N-[4-methoxy-3-(4-amino-benzenesulfonylamino)-phenyl]-benzamide], the “h15LO, value given as bare %” value is recorded as 97.68%.
Same read-out and setting: next, `CCCCCCCCCCCCS(=O)(=O)Nc1cc(NC(=O)c2ccc(F)c(F)c2)ccc1OC` [Example 200, 3,4-Difluoro-N-[4-methoxy-3-(1-dodecane-sulfonylamino)-phenyl]-benzamide]: 96.92%; `COc1ccc(NC(=O)c2ccc(F)c(F)c2)cc1NS(=O)(=O)CCl` [Example 201, 3,4-Difluoro-N-[4-methoxy-3-(chloromethyl-sulfonylamino)-phenyl]. benzamide]: 93.97%.
The same measure, in the same setting: next, `COc1ccc(NC(=O)c2ccc(F)c(F)c2)cc1NS(=O)(=O)c1ccc([N+](=O)[O-])cc1` [Example 202, 3,4-Difluoro-N-[4-methoxy-3-(4-nitro-benzenesulfonylamino)-phenyl]-benzamide]: 93.85%.
With `COc1ccc(NC(=O)c2ccc(F)c(F)c2)cc1NS(=O)(=O)c1cccc([N+](=O)[O-])c1` [Example 203, 3,4-Difluoro-N-[4-methoxy-3-(3-nitro-benzenesulfonylamino)-phenyl]-benzamide], the “h15LO, value given as bare %” value amounted to 92.01%.
Consider `COc1ccc(NC(=O)c2ccc(F)c(F)c2)cc1NS(=O)(=O)c1ccc(C#N)cc1` [Example 204, 3,4-Difluoro-N-[3-(4-cyano-benzenesulfonylamino)-4-methoxy-phenyl]-benzamide], for which the “h15LO, value given as bare %” value was found to be 89.54%.
On the same count and under the same terms, as for `COc1ccc(NC(=O)c2ccc(F)c(F)c2)cc1NS(=O)(=O)c1cccc(C#N)c1` [Example 205, 3,4-Difluoro-N-[3-(3-cyano-benzenesulfonylamino)-4-methoxy-phenyl]-benzamide], the figure is 86.96%; as for `O=C(Nc1ccc(F)c(NS(=O)(=O)c2cccs2)c1)c1ccc(F)c(F)c1` [Example 206, 3,4-Difluoro-N-[4-fluoro-3-(thiophene-2-sulfonylamino)-phenyl]-benzamide], 45.56%.
For `COc1ccc(NC(=O)Nc2ccc(Cl)c(Cl)c2)cc1NS(=O)(=O)c1cccs1` [Example 207, Thiophene-2-sulfonic acid {5-[3-(3,4-dichloro-phenyl)-ureido]-2-methoxy-phenyl}-amide], the “h15LO, value given as bare %” value amounted to 41.59%.
With `COc1ccc(C(=O)Nc2ccccc2)cc1NCc1ccc(O)c([N+](=O)[O-])c1` [Example 225, 3-(4-Hydroxy-3-nitro-benzylamino)-4-methoxy-N-phenyl-benzamide], the “h15LO, value given as bare %” value is 97.88%.
With `CCN(CC)c1ccc(CNc2cc(C(=O)Nc3ccc(F)c(F)c3)ccc2OC)cc1` [Example 226, 3-(4-Diethylamino-benzylamino)-4-methoxy-N-(3,4-difluoro-phenyl)-benzamide], the “h15LO, value given as bare %” value worked out at 96.21%.

Source of the values: patent US6528528B2 (Warner-Lambert Company, priority 1997, dated 2003).
